From patent publication US8945627B2, “Micelles for the solubilization of gossypol” (priority 2011, dated 2015)
“And” between values parts separate entries of the source, which are not always exact repeats. Equal values may be shown once. Read-outs that look alike come from different tables or passages of the source.

Legend:
[1] = neutral pH; cited from earlier work
[2] = tested on: ES-2 ovarian monolayer cells; experiment: cells; assay type: cell-based
[3] = assay type: physicochemical
Protocol: Acetone was evaporated from the aqueous micelle solution under reduced pressure using a rotatory evaporator at 60° C. The thin film of “polymer plus drug mixture” was reconstituted with 1 mL of 0.9% saline at 60° C.
(§1) Samples for RP-HPLC were prepared by adding acetonitrile (ACN) into each micelle to break it apart and quantify drugs dissolved in ACN.

[4] = tested on: ES-2 ovarian multicellular spheroids; experiment: cells; assay type: cell-based; conditions: read-out: IC50 values (nM), Spheroids (BLI)
Protocol: Surviving cells after treatment were quantified by scanning bioluminescence of luc-ES-2 cells (IVIS optical imaging system).
The images of FIG. 7 were collected using an inverted light microscope on spheroids treated with PEG5k-b-PCL10k micelles representing 1000 nM of total drug concentration. In advance, to obtain luciferase-expressing ES-2 cells, ES-2 cells were transfected with pGL4 with neomycin resistance using Lipofectamine 2,000.
Bioluminescence of surviving cells was quantified and IC50 value was calculated by using Compusyn.

[5] = 200 mg polymer
Protocol: (§2) Supernatant was collected and drug contents were analyzed by RP-HPLC analysis.

[6] = PEG-b-PCL micelle stability tests (drug quantification)
Protocol: as §2

[7] = assay type: physicochemical; remark: listed apart in the source
Protocol: Acetone was evaporated from the aqueous micelle solution under reduced pressure using a rotatory evaporator at 60° C.
as §1

A549 NSCLC Cells = experiment: In vitro cytotoxicity, resazurin cell viability assay; assay type: cell-based; conditions: Homo sapiens
Protocol: Cytotoxicity was determined using a resazurin cell viability assay. A549 cells were cultured in RPMI1640, supplemented with 10% FBS, 100 IU/mL penicillin, 100 μg/mL streptomycin, and 2 mM of L-glutamine. The cells were incubated at 37° C., 5% CO2 atmosphere. Exponentially grown cells were detached from the T-flask by adding a Trypsin-EDTA solution.
Each drug was dissolved at 10 mM as a stock solution using dimethyl sulfoxide (DMSO). […] The stock solution was diluted with cell culture media and the final concentration of DMSO was less than 0.1%. […] The fraction of viable cells were determined using a Cell titer Blue® dye assay (Promega, USA) by monitoring using fluorescence at 590 nm (emission). The inhibitory drug concentration (IC50) was determined by the median-effect equation using compusyn software (Combosyn Inc., US). The determination of IC50 was performed in three independent experiments.
The half maximal inhibitory drug concentration (IC50) was determined by the median-effect equation:
[formula] using CompuSyn software (Version 1.0, ComboSyn Inc., US). In the median-effect equation, fa is the fraction of affected cells; D is drug concentration; and m is the Hill slope or kinetic order.

[8] = Stability of the poloxamer micelle solution, 24 hours at ambient temperature; conditions: Pluronic F68 micelles, gossypol + paclitaxel
Protocol: The drugs remaining in the solution were quantified by RP-HPLC described above. The micelle solution was centrifuged at 13,000 rpm for 5 minutes and was then filtered with a 0.45 μm nylon filter to remove any drug aggregates in the micelle solution. The concentration of each drug was compared with that of each drug at initial preparation to estimate the stability of micelle solution.

[9] = singly-loaded poloxamer 188 micelles
[10] = polymer 10 mg/ml, CYP + GSP micelles
[11] = polymer 10 mg/ml, PTX + CYP + GSP micelles
[12] = polymer 10 mg/ml, PTX + CYP micelles
[13] = polymer 10 mg/ml, single drug micelles
[14] = polymer 20 mg/ml, PTX + CYP + GSP micelles
[15] = polymer 100 mg/ml, PTX + CYP + GSP micelles
[16] = polymer 200 mg/ml, CYP + GSP micelles
[17] = polymer 200 mg/ml, PTX + CYP + GSP micelles
[18] = polymer 200 mg/ml, PTX + CYP micelles
[19] = PTX/CYP/GSP poloxamer 188 micelles
[20] = 1-in-1 PEG5k-b-PCL10k micelles, 200 mg polymer
[21] = 1-in-1 micelles, 10× decreased drug loading
[22] = 2-in-1 CYP + GSP micelles, 200 mg polymer
[23] = 2-in-1 CYP + GSP micelles, 10× decreased drug loading
[24] = 2-in-1 PTX + CYP micelles, 200 mg polymer
[25] = 2-in-1 PTX + CYP micelles, 10× decreased drug loading
[26] = 3-in-1 PTX + CYP + GSP micelles, 200 mg polymer
[27] = 3-in-1 PTX + CYP + GSP micelles, 10× decreased drug loading
[28] = PEG5k-b-PCL10k micelles, Celltiter Blue readout, read-out: IC50 values (nM), Monolayer (Celltiter Blue)
[29] = PEG5k-b-PCL10k micelles, bioluminescence readout, read-out: IC50 values (nM), Monolayer (BLI)
[30] = PEG5k-b-PCL10k micelles, bioluminescence readout
[31] = 2-in-1 PTX + GSP micelles, 200 mg polymer
[32] = 2-in-1 PTX + GSP micelles, 10× decreased drug loading

C=CCNC1=C2C[C@@H](C)C[C@H](OC)[C@H](O)[C@@H](C)/C=C(\C)[C@H](OC(N)=O)[C@@H](OC)/C=C\C=C(/C)C(=O)NC(=CC1=O)C2=O [17-AAG, 17-allylamino-17-demethoxygeldanamycin]
water solubility [1]: about 0.1 mg/mL | drug level in water [9]: 210 µg/mL

CC1=C2C[C@H]3[C@@H](CC=C4C[C@@H](O)CC[C@@]43C)[C@@H]2CC[C@]12O[C@@H]1C[C@H](C)CN[C@H]1[C@H]2C [CYP, 11-deoxojervine]
IC50 ([2]; read-out: IC50 values (nM), Monolayer (BLI)): 240 nM | IC50 ([2]; read-out: IC50 values (nM), Monolayer (Celltiter Blue)): 245 nM | drug loaded [3, 10]: 0.16 ± 0.04 mg/mL | drug loaded [3, 11]: 0.21 ± 0.07 mg/mL | drug loaded [3, 12]: 0.03 ± 0.001 mg/mL | drug loaded [3, 13]: 0.012 ± 0.002 mg/mL | drug loaded [3, 14]: 0.27 ± 0.07 mg/mL | drug loaded [3, 15]: 3.55 ± 0.18 mg/mL | drug loaded [3, 16]: 3.5 ± 0.3 mg/mL | drug loaded [3, 17]: 5.1 mg/mL and 5.09 ± 0.29 mg/mL | drug loaded [3, 18]: 0.08 ± 0.02 mg/mL | IC50 [4]: 64.8 nM | % Remaining Day 0 ([5]; CYP/GSP poloxamer 188 micelles): 100 ± 7.4% | % Remaining Day 1 ([5]; CYP/GSP poloxamer 188 micelles): 106.9 ± 3.4% | % Remaining Day 0 [5, 19]: 100 ± 4.9% | % Remaining Day 1 [5, 19]: 101.2 ± 2.3% | % Remaining Day 0 [6, 20]: 100 ± 10.6% | % Remaining Day 1 [6, 20]: 96.3 ± 5.0% | % Remaining Day 0 [6, 21]: 100 ± 7.9% | % Remaining Day 1 [6, 21]: 96.0 ± 4.4% | % Remaining Day 0 [6, 22]: 100 ± 8.2% | % Remaining Day 1 [6, 22]: 91.0 ± 5.3% | % Remaining Day 0 [6, 23]: 100 ± 5.9% | % Remaining Day 1 [6, 23]: 96.5 ± 4.4% | % Remaining Day 0 [6, 24]: 100 ± 11.3% | % Remaining Day 1 [6, 24]: 97.4 ± 5.7% | % Remaining Day 0 [6, 25]: 100 ± 5.5% | % Remaining Day 1 [6, 25]: 94.3 ± 5.3% | % Remaining Day 0 [6, 26]: 100 ± 6.1% | % Remaining Day 1 [6, 26]: 36.8 ± 1.5% | % Remaining Day 0 [6, 27]: 100 ± 4.2% | % Remaining Day 1 [6, 27]: 87.7 ± 2.6% | drug loaded [7, 10]: 1.50 ± 0.50 mg/mL | drug loaded [7, 11]: 1.03 ± 0.02 mg/mL | drug loaded [7, 12]: 0.14 ± 0.06 mg/mL | drug loaded [7, 13]: 0.05 ± 0.03 mg/mL | drug loaded [7, 14]: 1.25 ± 0.11 mg/mL | drug loaded [7, 15]: 4.47 ± 0.38 mg/mL | drug loaded [7, 16]: 3.23 ± 0.99 mg/mL | drug loaded [7, 17]: 6.2 mg/mL and 6.20 ± 0.49 mg/mL | drug loaded [7, 18]: 0.89 ± 0.03 mg/mL

Cc1cc2c(C(C)C)c(O)c(O)c(C=O)c2c(O)c1-c1c(C)cc2c(C(C)C)c(O)c(O)c(C=O)c2c1O [Gossypol, gossypol]
IC50 [2, 28]: > 100000 nM | IC50 [2, 29]: > 100000 nM | IC50 (A549 NSCLC Cells; A549, 72 h): 6500 ± 3400 nM | IC50 [4, 30]: 4820 nM | % Remaining Day 0 [6, 20]: 100 ± 4.7% | % Remaining Day 1 [6, 20]: 89.4 ± 3.3% | % Remaining Day 0 [6, 21]: 100 ± 5.6% | % Remaining Day 1 [6, 21]: 98.3 ± 3.6% | % Remaining Day 0 [6, 22]: 100 ± 4.9% | % Remaining Day 1 [6, 22]: 89.8 ± 3.7% | % Remaining Day 0 [6, 23]: 100 ± 4.1% | % Remaining Day 1 [6, 23]: 95.4 ± 3.6% | % Remaining Day 0 [6, 31]: 100 ± 4.4% | % Remaining Day 1 [6, 31]: 97.0 ± 2.5% | % Remaining Day 0 [6, 32]: 100 ± 7.1% | % Remaining Day 1 [6, 32]: 89.5 ± 3.8% | % Remaining Day 0 [6, 26]: 100 ± 3.8% | % Remaining Day 1 [6, 26]: 82.3 ± 2.6% | % Remaining Day 0 [6, 27]: 100 ± 3.8% | % Remaining Day 1 [6, 27]: 81.0 ± 3.0% | drug level in water (2-in-1 poloxamer 188 micelles, gossypol + 17-AAG): 5180 ± 470 µg/mL | drug level in water (2-in-1 poloxamer 188 micelles, gossypol + paclitaxel): 4650 ± 620 µg/mL | drug level in water (2-in-1 poloxamer 188 micelles, gossypol + paclitaxel, listed as gossypol): 4650 µg/mL | drug level in water [9]: 5410 ± 140 µg/mL

CC(=O)O[C@H]1C(=O)[C@@]2(C)[C@H]([C@H](OC(=O)c3ccccc3)[C@]3(O)C[C@H](OC(=O)[C@H](O)[C@@H](NC(=O)c4ccccc4)c4ccccc4)C(C)=C1C3(C)C)[C@]1(OC(C)=O)CO[C@@H]1C[C@@H]2O [Paclitaxel, paclitaxel]
IC50 [2, 28]: 13 nM | IC50 [2, 29]: 12 nM | IC50 (A549 NSCLC Cells; A549, free drugs in DMSO stock, 72 hours, n = 3, mean ± SD, two drug combinations molar ratio 1:1, three drug 5:5:1, read-out: IC50): 616 ± 418 nM | % w/w drug(s) @ 24 hr [8]: 63.4 ± 35.4 % w/w | Initial drug level in water [8]: 6.53 ± 0.31 mg/mL | Drug level @ 24 hrs in water ([8]; ambient temperature): 4110 ± 2260 µg/mL | drug loaded [3, 11]: 0.38 ± 0.12 mg/mL | drug loaded [3, 12]: 0.01 ± 0.001 mg/mL | drug loaded ([3]; polymer 10 mg/ml, PTX + GSP micelles): 0.87 ± 0.09 mg/mL | drug loaded [3, 13]: 0.014 ± 0.002 mg/mL | drug loaded [3, 14]: 0.63 ± 0.14 mg/mL | drug loaded ([3]; polymer 200 mg/ml, PTX + CYP + GSP micelles, listed as PTX): 6.4 mg/mL and 6.41 ± 0.63 mg/mL | drug loaded [3, 18]: 0.01 ± 0.01 mg/mL | drug loaded ([3]; polymer 200 mg/ml, PTX + GSP micelles): 3.49 ± 0.39 mg/mL | IC50 [4, 30]: 8.7 nM | % Remaining Day 0 [6, 20]: 100 ± 9.3% | % Remaining Day 1 [6, 20]: 34.3 ± 3.1% | % Remaining Day 0 [6, 21]: 100 ± 8.3% | % Remaining Day 1 [6, 21]: 89.7 ± 5.2% | % Remaining Day 0 [6, 24]: 100 ± 12.6% | % Remaining Day 1 [6, 24]: 27.0 ± 2.9% | % Remaining Day 0 [6, 25]: 100 ± 6.2% | % Remaining Day 1 [6, 25]: 90.7 ± 5.1% | % Remaining Day 0 [6, 31]: 100 ± 9.4% | % Remaining Day 1 [6, 31]: 66.8 ± 4.1% | % Remaining Day 0 [6, 32]: 100 ± 6.3% | % Remaining Day 1 [6, 32]: 93.2 ± 4.9% | % Remaining Day 0 [6, 26]: 100 ± 4.7% | % Remaining Day 1 [6, 26]: 99.3 ± 2.2% | % Remaining Day 0 [6, 27]: 100 ± 3.6% | % Remaining Day 1 [6, 27]: 87.9 ± 2.7%
